Among the data in patent publication US4172891A, “Cephalosporins” (Takeda Chemical Industries, Inc., priority 1976, dated 1979) are MIC and ED50 values, retold here.

One test has as its system P. rettgeri 8(TNO 336). In words: Minimum Inhibitory Concentration, agar dilution, P. rettgeri 8(TNO 336). It is filed as cell-based, Proteus rettgeri. The conditions noted are these: Providencia rettgeri. An excerpt:
(§1) […]. | Minimum Inhibitory Concentrations (mcg/ml, agar dilution)

A further test relates to E. coli T-7. Description: Minimum Inhibitory Concentration, agar dilution, E. coli T-7. It is filed as cell-based. The conditions noted are these: Escherichia coli.
Excerpt: as §1

The next test deals with Escherichia coli O-111. In words: Comparative protection test on infected mice. It is filed as in vivo. The settings on record: O111, sc, 168 h; male ICR/SLC mice infected intraperitoneally with Escherichia coli O-111; single subcutaneous dose immediately after challenge; 7 days observation. From the text:
(§2) Following each example is a tabulation of the minimal inhibitory concentrations (MIC) of the present compound [I] obtained in accordance with the particular example against several representative gram-negative bacteria and the corresponding concentrations of cephaloridine [7-(2-thienylacetamido)-3-(1-pyridyl)methyl-3-cephem-4-carboxylic acid betaine] and cefazolin [sodium 7-(1H-tetrazol-1-yl)acetamido-3-(2-methyl-1,3,4-thiadiazol-5-yl)thiomethyl-3-cephem-4-carboxylate], both of which are typical cephalosporins commercially available and clinically accepted nowadays [The New England Journal of Medicine 294, 24 (1976) and Journal of Pharmaceutical Science 64, 1899 (1975)]. There are also shown the effective doses of the typical compounds of this invention on the mice infected with Escherichia coli in comparison with that of cephaloridine.
Comparative protection tests of the compounds of this
invention and cephaloridine on infected mice
*Test animals: male mice (ICR/SLC) 5 mice per group per single dose
Infection: intraperitoneally with Escherichia coli O-111
Administration: a single subcutaneous dose immediately after challenge
Observation period: 7 days

Another test concerns P. morganii IFO 3168. Description: Minimum Inhibitory Concentration, agar dilution, P. morganii IFO 3168. The format is cell-based, Proteus morganii. The settings on record: Morganella morganii.
Excerpt: as §1
In general terms: In agar dilution the substance is mixed into plates at graded concentrations.

The next test relates to P. vulgaris IFO 3988. In words: Minimum Inhibitory Concentration, agar dilution, P. vulgaris IFO 3988. It is filed as cell-based. The settings on record: Proteus vulgaris.
Excerpt: as §1

The subject of the next test is Ent. cloacae IFO 12937. Description: Minimum Inhibitory Concentration, agar dilution, Ent. cloacae IFO 12937. It is filed as cell-based. The settings on record: Enterobacter cloacae.
The test system of the next test is K. pneumoniae DT. In words: Minimum Inhibitory Concentration, agar dilution, K. pneumoniae DT. The conditions noted are these: Klebsiella pneumoniae, read-out: Minimum Inhibitory Concentration. It is filed as cell-based.
Excerpt: as §1

In another test the test system is P. mirabilis GN 4359. In words: Minimum Inhibitory Concentration, agar dilution, P. mirabilis GN 4359. The format is cell-based. The conditions noted are these: Proteus mirabilis.
Excerpt: as §1

The next test has as its system Cit. freundii GN 99. In words: Minimum Inhibitory Concentration, agar dilution, Cit. freundii GN 99. The conditions noted are these: Citrobacter freundii. The format is cell-based.
Excerpt: as §1

A further test relates to P. rettgeri GN 4733. Description: Minimum Inhibitory Concentration, agar dilution, P. rettgeri GN 4733. It is filed as cell-based, Proteus rettgeri. The conditions noted are these: Providencia rettgeri.
Excerpt: as §1

Another test concerns K. pneumoniae GN 3835. Description: Minimum Inhibitory Concentration, agar dilution, K. pneumoniae GN 3835. The format is cell-based. The settings on record: Klebsiella pneumoniae.
Excerpt: as §1

Another test concerns E. coli NIHJ. In words: Minimum Inhibitory Concentration, agar dilution, E. coli NIHJ. The format is cell-based. The settings on record: Escherichia coli, read-out: Minimum Inhibitory Concentration.
Excerpt: as §1

The next test has as its system E. coli O-111. In words: Minimum Inhibitory Concentration, agar dilution, E. coli O-111. The format is cell-based. The conditions noted are these: Escherichia coli, O111; E. coli O-111; agar dilution; read-out: Minimum Inhibitory Concentration.
Excerpt: as §2
Minimum Inhibitory Concentrations (mcg/ml, agar dilution)

In a further test the test system is Cit. freundii GN 1706. In words: Minimum Inhibitory Concentration, agar dilution, Cit. freundii GN 1706. The format is cell-based. The settings on record: Citrobacter freundii.
Excerpt: as §1

Setting [1] is: P. rettgeri 8(TNO 336), read-out: Minimum Inhibitory Concentration.
Setting [2] is: T7, E. coli T-7, agar dilution, read-out: Minimum Inhibitory Concentration.
The mark [3] stands for this setting: IFO3168, P. morganii IFO 3168, agar dilution, read-out: Minimum Inhibitory Concentration.
[4] abbreviates: IFO3988, P. vulgaris IFO 3988, agar dilution, read-out: Minimum Inhibitory Concentration.
Setting [5] is: IFO12937, Ent. cloacae IFO 12937, agar dilution, read-out: Minimum Inhibitory Concentration.
[6] abbreviates: K. pneumoniae DT, agar dilution.
Setting [7] is: GN4359, P. mirabilis GN 4359, agar dilution, read-out: Minimum Inhibitory Concentration.
Setting [8] is: GN99, Cit. freundii GN 99, agar dilution, read-out: Minimum Inhibitory Concentration.
Setting [9] is: GN4733, P. rettgeri GN 4733, agar dilution, read-out: Minimum Inhibitory Concentration.
Where [10] appears, read: GN3835, K. pneumoniae GN 3835, agar dilution, read-out: Minimum Inhibitory Concentration.
Setting [11] is: GN1706, Cit. freundii GN 1706, agar dilution, read-out: Minimum Inhibitory Concentration.
[12] abbreviates: GN4359, read-out: Minimum Inhibitory Concentration.

≈ marks a conversion by molar mass, not a printed value. Where two headings read alike, the source gives them in different places. Where only a bound is given, the exact number is not on record here.

One may read the ED50 as the dose that gives a 50% effect, or the effect in half of the subjects. A low value points to greater potency.

Consider `N=c1scc(CC(=O)NC2C(=O)N3C(C(=O)[O-])=C(C[n+]4ccc(C(N)=O)cc4)CSC23)n1O` (stereo not shown) [Example 10, 7-[2-(2-imino-3-hydroxy-4-thiazolin-4-yl)acetamido]-3-(4-carbamoylpyridinium)methyl-3-cephem-4-carboxylic acid betain], for which the MIC with P. rettgeri 8(TNO 336) (setting [1]) is ≤ 0.2 µg/mL; with E. coli T-7 (setting [2]) it was 25 µg/mL (≈ 51 µM); in the test with P. morganii IFO 3168 (setting [3]) it was 3.13 µg/mL (≈ 6.38 µM); with P. vulgaris IFO 3988 (setting [4]), 0.78 µg/mL (≈ 1.59 µM); in the test with Ent. cloacae IFO 12937 (setting [5]), 25 µg/mL (≈ 51 µM); with K. pneumoniae DT (setting [6]), 0.78 µg/mL (≈ 1.59 µM). The MIC was 0.78 µg/mL (≈ 1.59 µM) with P. mirabilis GN 4359 (setting [7]); 1.56 µg/mL (≈ 3.18 µM) in the test on Cit. freundii GN 99 (setting [8]); ≤ 0.2 µg/mL in the test on P. rettgeri GN 4733 (setting [9]); 1.56 µg/mL (≈ 3.18 µM) in the test with K. pneumoniae GN 3835 (setting [10]); 1.56 µg/mL (≈ 3.18 µM) with E. coli NIHJ (E. coli NIHJ, agar dilution); 0.39 µg/mL (≈ 0.795 µM) with E. coli O-111. In addition, the MIC in the test on Cit. freundii GN 1706 (setting [11]) amounted to 12.5 µg/mL (≈ 25.5 µM). In the test on Escherichia coli O-111, it took a dose of 0.089 mg/kg to reach the 50% effect level (ED50).

`N=c1scc(CC(=O)NC2C(=O)N3C(C(=O)O)=C(CSc4c[nH]nn4)CSC23)n1O` (stereo not shown) [Example 7, sodium 7-[2-(2-imino-3-hydroxy-4-thiazolin-4-yl)acetamido]-3-(1H-1,2,3-triazol-4-yl)thiomethyl-3-cephem-4-carboxylate]: the MIC is ≤ 0.03 µg/mL in the test with P. rettgeri 8(TNO 336) (setting [1]); 3.13 µg/mL in the test with E. coli T-7 (setting [2]); 0.39 µg/mL with P. morganii IFO 3168 (setting [3]); 0.2 µg/mL in the test with P. vulgaris IFO 3988 (setting [4]); > 100 µg/mL with Ent. cloacae IFO 12937 (setting [5]); 0.1 µg/mL in the test with K. pneumoniae DT (setting [6]). For the same molecule, the MIC was 0.1 µg/mL with P. mirabilis GN 4359 (setting [7]); 1.56 µg/mL in the test on Cit. freundii GN 99 (setting [8]); 0.78 µg/mL with P. rettgeri GN 4733 (setting [9]); 0.1 µg/mL with K. pneumoniae GN 3835 (setting [10]); 0.78 µg/mL in the test on E. coli NIHJ (E. coli NIHJ, agar dilution); 0.05 µg/mL in the test with E. coli O-111. Also, the MIC in the test with Cit. freundii GN 1706 (setting [11]) was determined as 12.5 µg/mL. In the test on Escherichia coli O-111, this molecule returned an ED50 of 0.056 mg/kg.

For `Cc1nnc(SCC2=C(C(=O)O)N3C(=O)C(NC(=O)Cc4csc(=N)n4O)C3SC2)o1` (stereo not shown) [Example 6, sodium 7-[2-(2-imino-3-hydroxy-4-thiazolin-4-yl)acetamido]-3-(5-methyl-1,3,4-oxadiazol-2-yl) thiomethyl-3-cephem-4-carboxylate], the MIC is ≤ 0.012 µg/mL in the test with P. rettgeri 8(TNO 336) (setting [1]); 3.13 µg/mL with E. coli T-7 (setting [2]); 0.1 µg/mL in the test on P. morganii IFO 3168 (setting [3]); 0.2 µg/mL with P. vulgaris IFO 3988 (setting [4]); 50 µg/mL in the test on Ent. cloacae IFO 12937 (setting [5]); 0.1 µg/mL in the test on K. pneumoniae DT (setting [6]). Moreover, the MIC was found to be 0.1 µg/mL in the test on P. mirabilis GN 4359 (setting [7]); 0.78 µg/mL in the test with Cit. freundii GN 99 (setting [8]); 0.1 µg/mL in the test on P. rettgeri GN 4733 (setting [9]); 0.78 µg/mL in the test on K. pneumoniae GN 3835 (setting [10]); 0.1 µg/mL in the test with E. coli NIHJ (E. coli NIHJ, agar dilution); 0.05 µg/mL in the test with E. coli O-111. Moreover, the MIC in the test on Cit. freundii GN 1706 (setting [11]) was determined as 1.56 µg/mL. The molecule further yielded an ED50 in the test with Escherichia coli O-111 of 0.071 mg/kg.

`N=c1scc(CC(=O)NC2C(=O)N3C(C(=O)[O-])=C(COC(N)=O)CS[C@H]23)n1O.[Na+]` (stereo partly shown) [Example 13, sodium 7-[2-(2-imino-3-hydroxy-4-thiazolin-4-yl)acetamido]-3-(carbamoyloxymethyl)-3-cephem-4-carboxylate]: the MIC was ≤ 0.012 µg/mL with P. rettgeri 8(TNO 336) (read-out: Minimum Inhibitory Concentration, P. rettgeri 8(TNO 336)); 1.56 µg/mL with E. coli T-7 (T7, read-out: Minimum Inhibitory Concentration); 0.78 µg/mL in the test on P. morganii IFO 3168 (IFO3168, read-out: Minimum Inhibitory Concentration); 0.39 µg/mL with P. vulgaris IFO 3988 (IFO3988, read-out: Minimum Inhibitory Concentration); 50 µg/mL in the test with Ent. cloacae IFO 12937 (IFO12937, read-out: Minimum Inhibitory Concentration); 0.2 µg/mL with K. pneumoniae DT. Besides, the MIC was found to be 0.2 µg/mL with P. mirabilis GN 4359 (setting [12]); 0.78 µg/mL with Cit. freundii GN 99 (GN99, read-out: Minimum Inhibitory Concentration); 0.2 µg/mL in the test with P. rettgeri GN 4733 (GN4733, read-out: Minimum Inhibitory Concentration); 0.2 µg/mL with K. pneumoniae GN 3835 (GN3835, read-out: Minimum Inhibitory Concentration); 0.2 µg/mL in the test on E. coli NIHJ; 0.1 µg/mL in the test with E. coli O-111. For the same molecule, in the test with Cit. freundii GN 1706 (GN1706, read-out: Minimum Inhibitory Concentration), the MIC came out at 3.13 µg/mL. The ED50 in the test on Escherichia coli O-111 turned out to be 0.084 mg/kg.

For the molecule `O=C(Cc1cccs1)N[C@@H]1C(=O)N2C(C(=O)[O-])=C(C[n+]3ccccc3)CS[C@H]12` [Cephaloridine, 7-(2-thienylacetamido)-3-(1-pyridyl)methyl-3-cephem-4-carboxylic acid betaine, reference compound], the MIC was 1.56 µg/mL (≈ 3.75 µM) with P. rettgeri 8(TNO 336) (setting [1]); > 100 µg/mL in the test on E. coli T-7 (setting [2]); > 100 µg/mL in the test on P. morganii IFO 3168 (setting [3]); 6.25 µg/mL (≈ 15 µM) in the test with P. vulgaris IFO 3988 (setting [4]); > 100 µg/mL with Ent. cloacae IFO 12937 (setting [5]); 3.13 µg/mL (≈ 7.53 µM) with K. pneumoniae DT. Besides, the MIC was 3.13 µg/mL (≈ 7.53 µM) with P. mirabilis GN 4359 (setting [12]); 50 µg/mL (≈ 120 µM) in the test on Cit. freundii GN 99 (setting [8]); > 100 µg/mL in the test with P. rettgeri GN 4733 (setting [9]); 50 µg/mL (≈ 120 µM) in the test with K. pneumoniae GN 3835 (setting [10]); 6.25 µg/mL (≈ 15 µM) in the test with E. coli NIHJ (E. coli NIHJ, agar dilution); 3.13 µg/mL (≈ 7.53 µM) in the test on E. coli O-111. Moreover, the MIC in the test with Cit. freundii GN 1706 (setting [11]) is > 100 µg/mL. Also, the ED50 in the test on Escherichia coli O-111 amounted to 2.6 mg/kg.
